Data as given in ChEMBL document CHEMBL1201862, “PubChem BioAssay data set” (2004).
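Method: 48-hour compound exposure of cells in 96-well plates, five concentrations, linear interpolation of endpoints. GI50 = concentration required for 50% inhibition of growth.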 Calls of active or inactive are those of the source. Rule as the data show it: active = GI50 up to about 1.1 µM and inactive = higher.

Key:
Assay in all cases: NCI anticancer screen, dose series, 48 h
KM-20L2 = tested on: KM-20L2
RXF 631 = tested on: RXF 631
XF498 = tested on: XF498
LXFL 529 = tested on: LXFL 529
DLD-1 = tested on: DLD-1
SNB-78 = tested on: SNB-78
HOP-18 = tested on: HOP-18
MDA-MB-231 = tested on: MDA-MB-231
MDA-N = tested on: MDA-N

SMILES: Cc1ccccc1NC(=O)CC(=O)N1N=C(N2c3ccccc3Sc3ccccc32)CC1c1ccccc1 (configuration not stated)
- GI50 (KM-20L2): > 100 µM (inactive)
- GI50 (RXF 631): > 100 µM (inactive)
- GI50 (XF498): > 100 µM (inactive)
- GI50 (LXFL 529): > 100 µM (inactive)
- GI50 (DLD-1): > 100 µM (inactive)
- GI50 (SNB-78): > 100 µM (inactive)

SMILES: CCOC(=O)C1=C(Nc2ccccc2)OC/C1=N\NC(=O)Cc1ccccc1
- GI50 (KM-20L2): > 50 µM (inactive)
- GI50 (RXF 631): > 50 µM (inactive)
- GI50 (XF498): > 50 µM (inactive)
- GI50 (LXFL 529): > 50 µM (inactive)
- GI50 (HOP-18): > 50 µM (inactive)
- GI50 (DLD-1): > 50 µM (inactive)
- GI50 (SNB-78): > 50 µM (inactive)

SMILES: CSc1nc(NC(=O)O)c(N(C(C)=O)C(=O)O)c(=O)n1C
- GI50 (KM-20L2): > 100 µM (inactive)
- GI50 (RXF 631): > 100 µM (inactive)
- GI50 (XF498): > 100 µM (inactive)
- GI50 (LXFL 529): > 100 µM (inactive)
- GI50 (DLD-1): > 100 µM (inactive)
- GI50 (SNB-78): > 100 µM (inactive)

SMILES: Cc1cc(Cl)ccc1/N=C1/NC(=O)C(CC(=O)Nc2cccc(C)c2C)S1 (configuration not stated)
- GI50 (KM-20L2): 29.9 µM (inactive)
- GI50 (RXF 631): 26.4 µM (inactive)
- GI50 (XF498): 10.7 µM (inactive)
- GI50 (DLD-1): 33.4 µM (inactive)
- GI50 (SNB-78): 28.5 µM (inactive)

SMILES: CCC1=CCN(c2cc(C)ccn2)OC1c1ccc(OC)cc1 (configuration not stated)
- GI50 (KM-20L2): 30.3 µM (inactive)
- GI50 (RXF 631): 61.2 µM (inactive)
- GI50 (LXFL 529): 28.6 µM (inactive)
- GI50 (DLD-1): 30.2 µM (inactive)

SMILES: CCCCC1=CSC(c2ccccc2)=C(c2ccccc2)S1
- GI50 (KM-20L2): 42.8 µM (inactive)
- GI50 (RXF 631): > 100 µM (inactive)
- GI50 (LXFL 529): 8.28 µM (inactive)
- GI50 (HOP-18): > 100 µM (inactive)
- GI50 (DLD-1): 82.6 µM (inactive)
- GI50 (SNB-78): > 100 µM (inactive)

SMILES: CC1C=CC(=O)C(n2cc(F)c(=O)[nH]c2=O)O1 (configuration not stated)
- GI50 (KM-20L2): 21.3 µM (inactive)
- GI50 (RXF 631): 19.7 µM (inactive)
- GI50 (XF498): 15.1 µM (inactive)
- GI50 (HOP-18): 10.8 µM (inactive)
- GI50 (DLD-1): 18.6 µM (inactive)
- GI50 (SNB-78): 28.2 µM (inactive)

SMILES: C=CCNC1=NC(=O)C(CC(=O)Nc2cccc(Cl)c2)S1 (configuration not stated)
- GI50 (KM-20L2): > 100 µM (inactive)
- GI50 (RXF 631): > 100 µM (inactive)
- GI50 (XF498): > 100 µM (inactive)
- GI50 (LXFL 529): > 100 µM (inactive)
- GI50 (HOP-18): > 100 µM (inactive)
- GI50 (DLD-1): > 100 µM (inactive)

SMILES: Cc1ccccc1NC(=O)C(=O)C1CN(c2ccccc2)N=C1N (configuration not stated)
- GI50 (KM-20L2): > 100 µM (inactive)
- GI50 (RXF 631): > 100 µM (inactive)
- GI50 (XF498): > 100 µM (inactive)
- GI50 (LXFL 529): > 100 µM (inactive)
- GI50 (DLD-1): > 100 µM (inactive)
- GI50 (SNB-78): > 100 µM (inactive)

SMILES: COc1cc(/C=C/C(=O)Oc2ccc(NC(C)=O)cc2)ccc1C(=O)OCc1ccccc1
- GI50 (KM-20L2): > 100 µM (inactive)
- GI50 (MDA-MB-231): > 100 µM (inactive)
- GI50 (XF498): 25.6 µM (inactive)
- GI50 (LXFL 529): > 100 µM (inactive)
- GI50 (HOP-18): > 100 µM (inactive)
- GI50 (DLD-1): > 100 µM (inactive)
- GI50 (SNB-78): 32.6 µM (inactive)
- GI50 (MDA-N): > 100 µM (inactive)

SMILES: CCCCCCC/C=C1\CCC(CN(C)C)C1=O (configuration not stated)
- GI50 (KM-20L2): 19.1 µM (inactive)
- GI50 (RXF 631): 10.9 µM (inactive)
- GI50 (MDA-MB-231): 3.2 µM (inactive)
- GI50 (XF498): 20.5 µM (inactive)
- GI50 (LXFL 529): 7.78 µM (inactive)
- GI50 (HOP-18): 17.2 µM (inactive)
- GI50 (DLD-1): 7.1 µM (inactive)
- GI50 (SNB-78): 16.4 µM (inactive)
- GI50 (MDA-N): 13.2 µM (inactive)

SMILES: Cc1ccc2c(c1)C1(OC(=O)c3ccccc31)c1ccc(F)cc1O2 (configuration not stated)
- GI50 (KM-20L2): 44.1 µM (inactive)
- GI50 (RXF 631): 83.9 µM (inactive)
- GI50 (XF498): 82.8 µM (inactive)
- GI50 (LXFL 529): 56.5 µM (inactive)
- GI50 (HOP-18): > 100 µM (inactive)
- GI50 (DLD-1): 61.8 µM (inactive)

SMILES: Cc1ccc(C2=C(c3ccccc3)C(Br)(c3ccc(C)cc3)C(c3ccccc3)=C2c2ccc(C)cc2)cc1
- GI50 (KM-20L2): > 100 µM (inactive)
- GI50 (RXF 631): > 100 µM (inactive)
- GI50 (XF498): > 100 µM (inactive)
- GI50 (LXFL 529): > 100 µM (inactive)
- GI50 (HOP-18): 2.09 µM (inactive)
- GI50 (DLD-1): > 100 µM (inactive)
- GI50 (SNB-78): > 100 µM (inactive)

SMILES: CC(C(=O)C(C)O[Si](c1ccccc1)(c1ccccc1)C(C)(C)C)=P(c1ccccc1)(c1ccccc1)c1ccccc1 (configuration not stated)
- GI50 (KM-20L2): 4.13 µM (inactive)
- GI50 (XF498): 2.79 µM (inactive)
- GI50 (LXFL 529): 3.3 µM (inactive)
- GI50 (HOP-18): 3.05 µM (inactive)
- GI50 (DLD-1): 4.58 µM (inactive)
- GI50 (SNB-78): 3.48 µM (inactive)

SMILES: Cc1ccc(S(=O)(=O)NC(=O)Nc2nc(Cl)cc(Cl)n2)cc1
- GI50 (KM-20L2): > 100 µM (inactive)
- GI50 (RXF 631): > 100 µM (inactive)
- GI50 (XF498): > 100 µM (inactive)
- GI50 (LXFL 529): > 100 µM (inactive)
- GI50 (HOP-18): > 100 µM (inactive)
- GI50 (DLD-1): > 100 µM (inactive)
- GI50 (SNB-78): > 100 µM (inactive)

SMILES: [O-][n+]1ccccc1S [PYRITHIONE ZINC]
- GI50 (KM-20L2): 1.04 µM (active)
- GI50 (RXF 631): 0.968 µM (active)
- GI50 (XF498): 0.226 µM (active)
- GI50 (LXFL 529): 0.327 µM (active)
- GI50 (HOP-18): 3.78 µM (inactive)
- GI50 (DLD-1): 0.115 µM (active)
- GI50 (SNB-78): 3.94 µM (inactive)
